Test results published in US4822606A, “Immunosuppressive synthetic peptides and analogs thereof based on retroviral envelope sequences” (Duke University, priority 1986, dated 1989).
Ends that are not written are not given here.

Key:
murine CTLL-2 cells = test: Murine cytotoxic T lymphocyte (CTLL-2) IL-2 dependent proliferation assay; type: cell-based; conditions: for average inhibition of CTLL-2 proliferation: coupled to BSA, CS-1 5 experiments, CS-3 4 experiments; for effect upon CTLL-2 cell proliferation: peptides coupled to BSA or control BSA, same conditions as the active peptide;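 for all read-outs here: CTLL-2 cells, 4 x 10^3 per well in 96-well plates with RPMI plus 6% FBS, proliferation read as cell-bound radioactivity counted by liquid scintillation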
[1] = tested on: lymphocytes from two non-related individuals; test: Human two-way mixed leukocyte culture (MLC); type: cell-based; conditions: 4 experiments, 6-day culture, coupled to BSA
Method: Fifty μl of RPMI containing 1×10^5 lymphocytes from each of two non-related individuals was added to each well of a 96 well tissue culture plate. An additional 50 μl of RPMI was added and cultures were incubated at 37° C. in humidified 5% CO2 for 5 days. Fifty μl of RPMI containing either peptide or no addition was added for an additional 24 hr. During the final 4 hr of incubation each well was incubated with 25 μl of RPMI containing 0.5 μCi of ^3 H-thymidine and incorporated radionucleotide determined as above.

[2] = tested on: OKT3-stimulated human lymphocytes; test: Human lymphocyte proliferative response to OKT3 antibody; type: cell-based; conditions: 5 experiments, 3 days, coupled to BSA
Method: One hundred μl of RPMI containing 2×10^5 lymphocytes was added to each well of a 96 well tissue culture plate. Fifty μl of RPMI containing either peptide or no addition was added for 2 hr at 37° C followed by the addition of 50 μl of RPMI containing nothing or Con A (40 μg/ml) or OKT3 antibody (1:1000 dilution). The cultures were incubated for 72 hr at 37° C. in 5% humidified CO2, pulsed with ^3 Hthymidine (0.,5 μCi/well, 4h.) and the incorporated radioactivity determined as described above. The concentration of OKT3 antibody used was previously determined to give 75-100% of a maximal response.

human lymphocytes = test: Binding of [^125 I]-CKS-17-BSA to cultured human lymphocytes; conditions: >1000 fold excess of unlabeled BSA conjugate
Method: Human mononuclear cells were stimulated for 3 days with PHA, washed free of lectin, cultured for 10 days with 10% of a human IL-2 preparation (electronucleonics) washed and resuspended to 5×10^6 cells/ml in phosphate-buffered-saline, pH 7.2 (PBS) containing 0.1% BSA. […] Binding was terminated and unbounded [^125 I]-CKS-17-BSA removed by rapid (30 sec.) centrifugation of the cells through oil. The cell associated radioactivity was measured using a gamma radiation counter.

human monocytes = test: Monocyte superoxide anion (O2^-) release; type: cell-based; conditions: WGA stimulated, peptide coupled to BSA, mean ± SE
Method: Monocytes were aliquoted into 12×75 mm polypropylene tubes (Falcon, Oxnard, CA) and incubated at 37° C. with test materials for twenty minutes. Cytochalasin E was then added to give a final concentration of 5 μg/ml. Ten minutes later 1.5 mg/ml cytochrome C was added followed immediately by wheat germ agglutinin (WGA) to a final concentration of 30 μg/ml (1). Supernatants were removed after 5 min. for determination of O2^- dismutase-inhibitable reduction of cytochrome C (2).

Substance	average inhibition of CTLL-2 proliferation (murine CTLL-2 cells; ca. 3.75 μM)	average inhibition of CTLL-2 proliferation (murine CTLL-2 cells; ca. 7.5 μM)	average inhibition of CTLL-2 proliferation (murine CTLL-2 cells; ca. 15 μM)	average inhibition of human two-way MLC ([1]; 3.75 μM)	average inhibition of human two-way MLC ([1]; 7.5 μM)	average inhibition of human two-way MLC ([1]; 15 μM)	average inhibition of OKT3-stimulated lymphocyte proliferation ([2]; ca. 3.75 μM)	average inhibition of OKT3-stimulated lymphocyte proliferation ([2]; ca. 7.5 μM)	average inhibition of OKT3-stimulated lymphocyte proliferation ([2]; ca. 15 μM)	inhibition of [^125 I]-CKS-17-BSA binding by excess unlabelled material (human lymphocytes)	effect upon CTLL-2 cell proliferation (murine CTLL-2 cells)	O2^- Release (human monocytes; dilution 1:20)	O2^- Release (human monocytes; dilution 1:40)
LQARILAVERYLKDQQL [CS-3]	3.5%	23.2%	81.8%	44.5%	74.0%	88.5%	23.2%	33.4%	40.4%	binding could be inhibited	–	–	–
PPFSLSPVPTL [SP-70]	–	–	–	–	–	–	–	–	–	–	little or no effect	10.7 ± 0.5 nmoles/5 minues/1.2 × 10^6 mon	11.6 ± 0.2 nmoles/5 minues/1.2 × 10^6 mon
AQNRRGLDLLFWEQGGL [CS-1]	13.4%	39.8%	92.8%	51.8%	72.2%	81.8%	26.8%	42.8%	57.6%	binding could be inhibited	–	–	–
PVMHPHGAPPNHRPWGMKNLQAIK [SP-16]	–	–	–	–	–	–	–	–	–	–	little or no effect	9.8 ± 0.2 nmoles/5 minues/1.2 × 10^6 mon	12.4 ± 0.6 nmoles/5 minues/1.2 × 10^6 mon
QYAAQNRRGLDLL [SP-74]	–	–	–	–	–	–	–	–	–	–	little or no effect	10.7 ± 0.4 nmoles/5 minues/1.2 × 10^6 mon	12.5 ± 0.5 nmoles/5 minues/1.2 × 10^6 mon
Glu-Val-Val-Leu-Glnpartial Asn-Arg-Arg-Gly-Leu-Asp-Leu-Leu (chain 1 EVVLQ; chain 2 NRRGLDLL; printed: Glu-Val-Val-Leu-Gln; printed: Asn-Arg-Arg-Gly-Leu-Asp-Leu-Leu) [SP-9]	–	–	–	–	–	–	–	–	–	–	little or no effect	10.6 ± 0.3 nmoles/5 minues/1.2 × 10^6 mon	12.4 ± 0.5 nmoles/5 minues/1.2 × 10^6 mon
